According to US11541006B2, “Aqueous formulation for insoluble drugs” (priority 2018, dated 2023):
In brackets after ≈: the same amount, converted by molar mass. Counter-ions that a name gives are not always drawn.

Columns and labels:
[1] = Solubility of insoluble drugs in F96 LMBW vehicle (Example 4); format: physicochemical; details: for solubility: aqueous with cosolvent or surfactant or cyclodextrin, thermodynamic from solid
From the text: Twenty-two (22) insoluble drugs having a wide variety of chemical structures (including chemical element, small molecule, peptide and protein), properties and biological activities (including drugs, diagnostic agents and nutritional supplement agents) were selected and tested for solubility in F96 LMBW vehicle as follows: • 1. Measure out a fixed amount of F96 vehicle. • 2. Add a known amount of an insoluble drug substance. • 3. Mix to dissolve the drug substance. • 4. […] Record the maximum amount of the insoluble drug substance that the F96 LMBW vehicle could dissolve and use this value to calculate the drug's solubility in the F96 LMBW vehicle.

[2] = cited from earlier work; for Solubility according to USP definition: in water
[3] = Solubility of insoluble drugs in 16% SBECD aqueous solution (Example 27); details: for solubility: 16% SBECD aqueous solution, aqueous with cosolvent or surfactant or cyclodextrin, thermodynamic from solid; for Measured solubility in 16% SBECD: 16% sulfobutyl ether beta cyclodextrin aqueous solution
From the text: Add a known amount of an insoluble drug substance. • 3. Mix to dissolve the drug substance. • 4.

[4] = Solubility of disease-related insoluble solids in LMBW vehicle and PBS (Example 29); format: physicochemical; details: for solubility: thermodynamic from solid
From the text: These solids have very low solubility in the body fluids and therefore they have a high tendency to precipitate and to form the undesirable solid deposits in vivo. […] Weigh out a fixed amount of a solid of interest, • 2. […] Mix to dissolve the solid, • 4. If the solid has completely dissolved, add more until it is no longer dissolving in the vehicle • 5.

Compound | solubility [1] [µg/mL] | solubility [3] [µg/mL] | solubility ([4]; F96 LMBW vehicle, aqueous with cosolvent or surfactant or cyclodextrin, vehicle at pH 7) [µg/mL] | solubility ([4]; phosphate buffered saline, aqueous buffer, read-out: Solubility in PBS) [µg/mL] | Solubility according to USP definition [2] | Reported solubility in water [2] | Measured solubility in F96 LMBW Vehicle ([1]; stepwise addition until no longer dissolving) [µg/mL] | Measured solubility in 16% SBECD [3] [µg/mL] | Solubility in PBS ([4]; phosphate buffered saline) [µg/mL] | Measured solubility in F96 LMBW Vehicle ([4]; vehicle at pH 7) [µg/mL]
CC(C)c1cccc(C(C)C)c1O [Propofol] | 50800 (≈ 285 mM) | 56600 (≈ 317 mM) | – | – | Insoluble | <0.0001 mg/mL | – | – | – | –
CC(=O)O[C@H]1C(=O)[C@@]2(C)[C@H]([C@H](OC(=O)c3ccccc3)[C@]3(O)C[C@H](OC(=O)[C@H](O)[C@@H](NC(=O)c4ccccc4)c4ccccc4)C(C)=C1C3(C)C)[C@]1(OC(C)=O)CO[C@@H]1C[C@@H]2O [Paclitaxel] | – | – | – | – | Insoluble | <0.0001 mg/mL | – | – | – | –
CCC(C)n1ncn(-c2ccc(N3CCN(c4ccc(OCC5COC(Cn6cncn6)(c6ccc(Cl)cc6Cl)O5)cc4)CC3)cc2)c1=O (stereo not drawn) [Intraconazole] | – | – | – | – | Insoluble | <0.0001 mg/mL | 500 to 1000 | 170 | – | –
O=c1[nH]c(=O)c2[nH]c([O-])nc2[nH]1.[Na+] [Mono sodium urate] | – | – | – | – | – | – | – | – | <1 | 50
CC[C@@]1(O)C(=O)OCc2c1cc1n(c2=O)Cc2cc3ccccc3nc2-1 [Camptothecin] | 500 to 1000 (≈ 1.44 to 2.87 mM) | 60 (≈ 0.172 mM) | – | – | Insoluble | <0.0001 mg/mL | – | – | – | –
CC(C)CCC[C@@H](C)[C@H]1CC[C@H]2[C@@H]3CC=C4C[C@@H](O)CC[C@]4(C)[C@H]3CC[C@]12C [Cholesterol] | – | – | 25000 (≈ 64.7 mM) | 50 (≈ 0.129 mM) | – | – | – | – | – | –
N[C@@H](Cc1ccc(O)c(O)c1)C(=O)O [Levodopa] | 10000 (≈ 50.7 mM) | 2130 (≈ 10.8 mM) | – | – | Slightly soluble (100-1000) | – | – | – | – | –
Casein | – | – | – | – | Very poorly | 0.001-0.0001 mg/mL | – | 150 | – | –

Second part, led by results:

solubility [1] [µg/mL] | solubility [3] [µg/mL] | solubility ([4]; F96 LMBW vehicle, aqueous with cosolvent or surfactant or cyclodextrin, vehicle at pH 7) [µg/mL] | solubility ([4]; phosphate buffered saline, aqueous buffer, read-out: Solubility in PBS) [µg/mL] | Compound | Solubility according to USP definition [2] | Reported solubility in water [2] | Measured solubility in F96 LMBW Vehicle ([1]; stepwise addition until no longer dissolving) [µg/mL] | Measured solubility in 16% SBECD [3] [µg/mL] | Solubility in PBS ([4]; phosphate buffered saline) [µg/mL] | Measured solubility in F96 LMBW Vehicle ([4]; vehicle at pH 7) [µg/mL]
9100 (≈ 12.2 mM) | 1710 (≈ 2.29 mM) | – | – | CC[C@H]1OC(=O)[C@H](C)[C@@H](O[C@H]2C[C@@](C)(OC)[C@@H](O)[C@H](C)O2)[C@H](C)[C@@H](O[C@@H]2O[C@H](C)C[C@H](N(C)C)[C@H]2O)[C@](C)(OC)C[C@@H](C)C(=O)[C@H](C)[C@@H](O)[C@]1(C)O [Clarithromycin] | Practically | <0.0001 mg/mL | – | – | – | –
12700 (≈ 23.8 mM) | 150 (≈ 0.281 mM) | – | – | C[C@@H](O[C@H]1OCCN(Cc2n[nH]c(=O)[nH]2)[C@H]1c1ccc(F)cc1)c1cc(C(F)(F)F)cc(C(F)(F)F)c1 [Aprepitant] | Practically | <0.0001 mg/mL | – | – | – | –
28200 (≈ 62.6 mM) | 150 (≈ 0.333 mM) | – | – | CC1=C(C/C=C(\C)CCC[C@H](C)CCC[C@H](C)CCCC(C)C)C(=O)c2ccccc2C1=O [Phytonadione] | Insoluble | <0.0001 mg/mL | – | – | – | –
2400 (≈ 2.6 mM) | 70 (≈ 0.0758 mM) | – | – | C[C@@H]1[C@H](O)[C@@H](C)/C=C/C=C/C=C/C=C/C=C/C=C/C=C/[C@H](O[C@@H]2O[C@H](C)[C@@H](O)[C@H](N)[C@@H]2O)C[C@@H]2O[C@](O)(C[C@@H](O)C[C@@H](O)[C@H](O)CC[C@@H](O)C[C@@H](O)CC(=O)O[C@H]1C)C[C@H](O)[C@H]2C(=O)O [Amphotericin] | Insoluble | <0.0001 mg/mL | – | – | – | –
12000 (≈ 38.2 mM) | 4060 (≈ 12.9 mM) | – | – | CC(=O)[C@H]1CC[C@H]2[C@@H]3CCC4=CC(=O)CC[C@]4(C)[C@H]3CC[C@]12C [Progesterone] | Sparingly | 0.017 mg/mL | – | – | – | –
7300 (≈ 19.1 mM) | 1030 (≈ 2.7 mM) | – | – | Cc1ccc(-c2cc(C(F)(F)F)nn2-c2ccc(S(N)(=O)=O)cc2)cc1 [Celecoxib] | Very poorly | 0.001-0.0001 mg/mL | – | – | – | –
20400 | 2120 | – | – | CCc1c2c(nc3ccc(OC(=O)N4CCC(N5CCCCC5)CC4)cc13)-c1cc3c(c(=O)n1C2)COC(=O)[C@]3(O)CC [Irinotecan HCl] | Insoluble | <0.0001 mg/mL | – | – | – | –
500 (≈ 0.713 mM) | 270 (≈ 0.385 mM) | – | – | CC[C@@H]([C@H](C)O)n1ncn(-c2ccc(N3CCN(c4ccc(OC[C@@H]5CO[C@@](Cn6cncn6)(c6ccc(F)cc6F)C5)cc4)CC3)cc2)c1=O [Posaconazole] | Insoluble | <0.0001 mg/mL | – | – | – | –
53100 (≈ 257 mM) | 3580 (≈ 17.4 mM) | – | – | CC(C)Cc1ccc(C(C)C(=O)O)cc1 (stereo not drawn) [Ibuprofen] | Sparingly | – | – | – | – | –
9000 (≈ 39.4 mM) | 4850 (≈ 21.2 mM) | – | – | Oc1ccc(C=Cc2cc(O)cc(O)c2)cc1 [Resveratrol] | Insoluble | <0.0001 mg/mL | – | – | – | –
